Calls of active or inactive are those of the source.
What was measured:
[1] = molecular target: Glyceraldehyde-3-phosphate dehydrogenase (Homo sapiens, UniProt P04406)
[2] = molecular target: T1, Alkaline phosphatase, tissue-nonspecific isozyme (Homo sapiens, UniProt P05186); assay: potency against alkaline phosphatase TNAP – biochemical, luminescent, dose response, SAR follow-up (AID 1056)
T1 sequence (P05186 whole entry): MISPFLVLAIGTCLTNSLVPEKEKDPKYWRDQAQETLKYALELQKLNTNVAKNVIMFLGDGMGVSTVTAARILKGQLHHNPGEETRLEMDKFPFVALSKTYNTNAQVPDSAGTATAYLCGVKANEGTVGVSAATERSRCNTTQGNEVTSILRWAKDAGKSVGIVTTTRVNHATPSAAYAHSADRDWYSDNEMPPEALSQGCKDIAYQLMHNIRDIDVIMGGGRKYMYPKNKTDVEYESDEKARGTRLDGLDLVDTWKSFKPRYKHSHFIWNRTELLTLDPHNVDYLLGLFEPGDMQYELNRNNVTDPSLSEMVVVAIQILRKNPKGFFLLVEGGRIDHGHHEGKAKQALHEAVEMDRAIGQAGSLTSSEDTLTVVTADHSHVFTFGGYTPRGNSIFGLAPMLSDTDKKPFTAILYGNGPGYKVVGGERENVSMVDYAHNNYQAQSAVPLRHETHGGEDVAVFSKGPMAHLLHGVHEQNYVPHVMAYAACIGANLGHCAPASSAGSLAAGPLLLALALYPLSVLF

J774.A1 = assay: Confirmation of image-based Screening Assay for Inhibitors of Phagocytosis. [Related pubchem assays (depositor defined):AID1029, AID1643]; format: functional, cell-based; conditions: Mus musculus
T-cell = assay: loss of vesicle association with mouse CD8+ T cells – mouse 2C CD8+ T cells, flow cytometry, dose response (AID 485284); format: functional
[3] = molecular target: T2, E3 ubiquitin-protein ligase XIAP (Homo sapiens, UniProt P98170); assay: Counter Screen using XIAP-Bir3 of the Chemical Antagonists of IAP-family anti-apoptotic proteins confirmation assay. [Related pubchem assays (depositor defined):AID1018, AID1449, AID1513, AID1638, AID1749, AID1750, AID488957, AID488963]
T2 sequence (P98170 whole entry): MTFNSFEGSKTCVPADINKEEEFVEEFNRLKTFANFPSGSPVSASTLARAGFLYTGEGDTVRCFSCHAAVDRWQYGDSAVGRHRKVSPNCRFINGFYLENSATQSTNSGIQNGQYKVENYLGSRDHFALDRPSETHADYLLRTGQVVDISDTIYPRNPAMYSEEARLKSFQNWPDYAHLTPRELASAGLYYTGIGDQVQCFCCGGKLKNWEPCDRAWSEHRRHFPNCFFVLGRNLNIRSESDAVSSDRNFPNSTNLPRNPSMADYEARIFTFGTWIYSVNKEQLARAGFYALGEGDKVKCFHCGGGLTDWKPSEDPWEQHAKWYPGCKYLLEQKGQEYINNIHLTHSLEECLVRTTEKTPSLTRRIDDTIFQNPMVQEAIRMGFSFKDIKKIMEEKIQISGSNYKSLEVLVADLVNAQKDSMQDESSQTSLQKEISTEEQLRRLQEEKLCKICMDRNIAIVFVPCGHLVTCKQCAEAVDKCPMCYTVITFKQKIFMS

[4] = molecular target: T2, E3 ubiquitin-protein ligase XIAP; assay: Chemical Antagonists of IAP-family anti-apoptotic proteins confirmation. [Related pubchem assays (depositor defined):AID1018, AID1513, AID1514, AID1638, AID1749, AID1750, AID488957, AID488963]
[5] = molecular target: T2, E3 ubiquitin-protein ligase XIAP; assay: small molecules displacing peptide from XIAP – biochemical, IAP family, fluorescence polarization (AID 1018); format: functional
[6] = molecular target: Eukaryotic translation initiation factor 4E (Mus musculus, UniProt P63073); assay: blockers of eIF4G binding by eIF4E – biochemical, TR-FRET, dose response (AID 855); format: functional;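 further: potency for disrupting eIF4E binding to eIF4GI seen as loss of FRET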
Hexokinase HKDC1 [7] = molecular target: T3, Hexokinase HKDC1 (Homo sapiens, UniProt Q2TB90); assay: inhibition of HKDC1 glucose phosphorylation – biochemical, W721R variant, dose response (AID 504729); format: functional
T3 sequence (Q2TB90 whole entry): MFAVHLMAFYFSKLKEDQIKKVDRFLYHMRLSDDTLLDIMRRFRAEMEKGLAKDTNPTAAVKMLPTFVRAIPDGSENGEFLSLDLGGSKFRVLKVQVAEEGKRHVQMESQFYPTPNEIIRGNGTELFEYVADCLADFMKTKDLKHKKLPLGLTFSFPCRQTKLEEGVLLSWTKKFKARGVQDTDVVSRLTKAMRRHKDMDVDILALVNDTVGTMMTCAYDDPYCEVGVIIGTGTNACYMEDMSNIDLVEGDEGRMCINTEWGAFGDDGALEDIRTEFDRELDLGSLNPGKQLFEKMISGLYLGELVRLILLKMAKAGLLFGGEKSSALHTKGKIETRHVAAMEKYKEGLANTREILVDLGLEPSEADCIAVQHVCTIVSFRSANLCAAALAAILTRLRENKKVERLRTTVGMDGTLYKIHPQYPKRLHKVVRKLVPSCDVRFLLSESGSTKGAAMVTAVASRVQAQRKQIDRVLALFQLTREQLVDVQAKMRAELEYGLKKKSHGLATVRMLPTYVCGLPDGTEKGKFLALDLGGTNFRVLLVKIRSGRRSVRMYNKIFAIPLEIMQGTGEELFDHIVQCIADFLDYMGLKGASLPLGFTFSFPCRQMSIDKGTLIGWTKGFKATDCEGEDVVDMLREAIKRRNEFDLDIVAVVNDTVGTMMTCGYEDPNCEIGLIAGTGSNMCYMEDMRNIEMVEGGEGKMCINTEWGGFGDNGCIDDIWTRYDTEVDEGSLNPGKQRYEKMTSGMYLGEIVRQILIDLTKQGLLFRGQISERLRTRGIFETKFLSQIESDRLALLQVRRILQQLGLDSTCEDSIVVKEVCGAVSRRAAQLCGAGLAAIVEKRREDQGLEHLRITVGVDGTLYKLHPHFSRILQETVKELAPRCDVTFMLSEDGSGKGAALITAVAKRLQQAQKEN

[8] = molecular target: Induced myeloid leukemia cell differentiation protein Mcl-1 (Homo sapiens, UniProt Q07820); assay: blockers of MCL1 binding to BIM peptide – biochemical, fluorescence polarization, BIM-BH3 peptide, 1536-well, dose response (AID 2217)
Sequence of Induced myeloid leukemia cell differentiation protein Mcl-1 (Q07820 whole entry): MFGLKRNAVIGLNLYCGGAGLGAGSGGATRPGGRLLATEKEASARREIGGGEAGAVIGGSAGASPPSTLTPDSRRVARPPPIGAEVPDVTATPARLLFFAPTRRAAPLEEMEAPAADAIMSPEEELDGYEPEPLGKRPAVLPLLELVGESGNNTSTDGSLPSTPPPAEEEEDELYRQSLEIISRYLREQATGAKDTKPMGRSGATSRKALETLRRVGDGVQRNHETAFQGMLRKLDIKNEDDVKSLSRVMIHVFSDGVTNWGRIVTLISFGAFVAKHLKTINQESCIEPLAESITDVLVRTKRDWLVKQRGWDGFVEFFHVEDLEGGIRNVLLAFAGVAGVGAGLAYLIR

Bcl-2-like protein 1 = Bcl-2-like protein 1 (Homo sapiens, UniProt Q07817); assay: blockers of BCLXL peptide binding – biochemical, fluorescence polarization, 1536-well, selectivity assay for MCL1 inhibitor project, dose response (AID 2218)
Sequence of Bcl-2-like protein 1 (Q07817 whole entry): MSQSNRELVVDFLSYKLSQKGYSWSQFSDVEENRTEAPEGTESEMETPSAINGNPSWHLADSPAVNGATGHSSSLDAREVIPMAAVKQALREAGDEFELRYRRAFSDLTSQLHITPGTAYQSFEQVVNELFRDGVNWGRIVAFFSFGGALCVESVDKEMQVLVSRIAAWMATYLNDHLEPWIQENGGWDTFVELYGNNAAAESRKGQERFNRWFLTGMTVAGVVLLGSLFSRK

[9] = molecular target: Peroxisome proliferator-activated receptor gamma (Homo sapiens, UniProt P37231); assay: PPARg transcriptional activation, reporter cells – cell-based, luminescence, assay provider, dose response (AID 504447); format: functional
Sequence of Peroxisome proliferator-activated receptor gamma (P37231 whole entry): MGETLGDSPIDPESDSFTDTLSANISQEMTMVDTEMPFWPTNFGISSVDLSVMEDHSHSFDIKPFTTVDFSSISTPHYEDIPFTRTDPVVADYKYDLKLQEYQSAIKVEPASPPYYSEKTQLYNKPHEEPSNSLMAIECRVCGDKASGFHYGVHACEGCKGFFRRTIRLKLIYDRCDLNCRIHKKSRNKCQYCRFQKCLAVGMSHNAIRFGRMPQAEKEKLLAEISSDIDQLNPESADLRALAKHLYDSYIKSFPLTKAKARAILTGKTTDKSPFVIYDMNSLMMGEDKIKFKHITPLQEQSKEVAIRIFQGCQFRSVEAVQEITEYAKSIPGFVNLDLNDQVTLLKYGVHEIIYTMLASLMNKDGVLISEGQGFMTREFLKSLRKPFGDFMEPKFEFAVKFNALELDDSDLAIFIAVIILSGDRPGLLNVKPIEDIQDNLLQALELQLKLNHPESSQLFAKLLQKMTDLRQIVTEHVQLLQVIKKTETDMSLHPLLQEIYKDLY

[10] = molecular target: T4, Small ubiquitin-related modifier 1 (Homo sapiens, UniProt P63165); assay: SUMO1 protein interaction blockers, potency – biochemical, fluorescence polarization, uHTS hits, dose response (AID 624382); format: functional; conditions: read-out: IC50_Mean
T4 sequence (P63165 whole entry): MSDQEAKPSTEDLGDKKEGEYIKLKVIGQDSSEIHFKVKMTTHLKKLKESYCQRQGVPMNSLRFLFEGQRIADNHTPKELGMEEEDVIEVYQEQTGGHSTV

[11] = molecular target: T5, Probable nicotinate-nucleotide adenylyltransferase (Staphylococcus aureus (strain N315), UniProt P65502); format: functional, Staphylococcus aureus subsp. aureus N315;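 on IC50 Mean: confirmatory dose-response retesting of NadD inhibitor hits first found in an ultra-high-throughput screen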
T5 sequence (P65502 whole entry): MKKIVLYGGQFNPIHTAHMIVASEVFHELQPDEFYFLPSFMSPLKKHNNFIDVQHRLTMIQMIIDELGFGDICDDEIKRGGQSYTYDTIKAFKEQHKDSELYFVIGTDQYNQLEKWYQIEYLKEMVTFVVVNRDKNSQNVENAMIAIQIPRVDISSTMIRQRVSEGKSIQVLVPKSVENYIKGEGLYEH

[12] = molecular target: T5, Probable nicotinate-nucleotide adenylyltransferase; format: functional, Staphylococcus aureus subsp. aureus N315; conditions: read-out: IC50_Mean
[13] = molecular target: T4, Small ubiquitin-related modifier 1; assay: SUMO1 protein-protein binding blockers, potency – biochemical, FRET, dose response (AID 624383); format: functional; conditions: read-out: IC50_Mean
[14] = viability loss in HeLa cells – cytotoxicity control for MgcRacGAP inhibitor project, dose response (AID 624300); format: functional
[15] = molecular target: T6, Rac GTPase-activating protein 1 (Homo sapiens, UniProt Q9H0H5); assay: blockers of MgcRacGAP-driven Rac1 GTP hydrolysis – biochemical, ADP Hunter fluorescence, primary and confirmatory, confirmation (AID 624330); format: functional
T6 sequence (Q9H0H5 whole entry): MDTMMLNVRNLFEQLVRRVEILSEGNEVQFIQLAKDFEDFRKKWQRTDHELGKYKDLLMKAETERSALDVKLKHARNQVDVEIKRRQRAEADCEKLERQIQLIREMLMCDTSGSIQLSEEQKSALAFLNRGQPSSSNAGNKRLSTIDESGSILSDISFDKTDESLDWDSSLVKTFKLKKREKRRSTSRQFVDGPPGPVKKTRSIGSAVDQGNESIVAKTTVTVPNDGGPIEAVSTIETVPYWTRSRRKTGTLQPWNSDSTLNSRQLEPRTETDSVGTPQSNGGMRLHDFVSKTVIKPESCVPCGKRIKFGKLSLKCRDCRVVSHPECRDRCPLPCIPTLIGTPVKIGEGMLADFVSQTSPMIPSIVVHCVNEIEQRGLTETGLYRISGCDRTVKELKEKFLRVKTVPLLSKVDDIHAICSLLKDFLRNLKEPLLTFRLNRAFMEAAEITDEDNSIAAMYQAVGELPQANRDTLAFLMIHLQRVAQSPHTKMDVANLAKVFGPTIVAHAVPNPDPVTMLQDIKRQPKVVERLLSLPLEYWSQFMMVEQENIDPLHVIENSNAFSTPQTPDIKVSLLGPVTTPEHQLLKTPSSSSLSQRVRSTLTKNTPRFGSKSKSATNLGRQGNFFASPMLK

[16] = molecular target: Voltage-dependent T-type calcium channel subunit alpha-1H (Homo sapiens, UniProt O95180); assay: human CACNA1H calcium influx blockade – cell-based, synthetic library set 1, calcium flux (AID 493022); format: functional
Mu-type opioid receptor = Mu-type opioid receptor (Homo sapiens, UniProt P35372); assay: SAR Analysis of Antagonists of the MOR Receptor using an Image-Based Assay - Set 3. [Related pubchem assays (depositor defined):AID1777, AID1785, AID1786, AID1966, AID2133, AID2136, AID2284, AID2285, AID2420]; format: functional
Sequence of Mu-type opioid receptor (P35372 whole entry): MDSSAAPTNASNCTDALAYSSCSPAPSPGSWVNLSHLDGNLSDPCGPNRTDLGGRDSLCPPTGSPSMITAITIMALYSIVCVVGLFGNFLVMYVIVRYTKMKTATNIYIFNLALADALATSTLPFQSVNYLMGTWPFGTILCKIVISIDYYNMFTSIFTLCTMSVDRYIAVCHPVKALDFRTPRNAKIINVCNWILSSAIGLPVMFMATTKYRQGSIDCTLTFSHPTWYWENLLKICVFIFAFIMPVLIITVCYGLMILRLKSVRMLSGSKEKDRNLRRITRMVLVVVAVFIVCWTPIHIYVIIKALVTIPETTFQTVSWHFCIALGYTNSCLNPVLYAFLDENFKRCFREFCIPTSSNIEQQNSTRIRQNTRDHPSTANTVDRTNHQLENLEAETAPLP

[17] = molecular target: T7, Kappa-type opioid receptor (Homo sapiens, UniProt P41145); assay: SAR analysis of small molecule antagonists of the kappa opioid receptor via a luminescent beta-arrestin assay - Set 4. [Related pubchem assays (depositor defined):AID1777, AID1778, AID1785, AID1786, AID1966, AID2133, AID2136, AID2285]; format: functional
T7 sequence (P41145 whole entry): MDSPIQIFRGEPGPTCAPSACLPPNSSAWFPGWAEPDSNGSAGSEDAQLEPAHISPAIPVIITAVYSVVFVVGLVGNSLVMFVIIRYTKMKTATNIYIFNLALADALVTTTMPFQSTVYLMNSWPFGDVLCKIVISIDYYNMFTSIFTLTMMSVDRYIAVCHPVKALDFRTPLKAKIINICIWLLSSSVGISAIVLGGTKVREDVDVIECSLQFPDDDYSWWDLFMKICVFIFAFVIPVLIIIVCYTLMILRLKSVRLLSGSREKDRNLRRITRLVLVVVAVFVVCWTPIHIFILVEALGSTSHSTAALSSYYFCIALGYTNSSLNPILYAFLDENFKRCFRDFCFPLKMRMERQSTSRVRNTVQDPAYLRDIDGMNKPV

[18] = molecular target: Delta-type opioid receptor (Homo sapiens, UniProt P41143); assay: SAR Analysis of Antagonists of the DOR Receptor using an Image-Based Assay - Set 3. [Related pubchem assays (depositor defined):AID1777, AID1785]; format: functional;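 further: U2OS cells expressing DOR1 and beta-arrestin GFP stimulated with 100 nM SNC80; imaging of GFP-tagged beta-arrestin moving into spots after receptor activation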
[19] = molecular target: T7, Kappa-type opioid receptor; assay: SAR analysis of Antagonists of the Kappa Opioid Receptor (KOR) using an Image-Based Assay - Set 4. [Related pubchem assays (depositor defined):AID1777, AID1785]; format: functional
Hexokinase HKDC1 [20] = molecular target: T3, Hexokinase HKDC1; assay: activation of HKDC1 glucose phosphorylation – biochemical, W721R variant, dose response (AID 504730); format: functional
Nonstructural protein 1 = Nonstructural protein 1 (Influenza A virus, UniProt Q194T2); format: functional, Influenza A virus (A/California/07/2009(H1N1))
Sequence of Nonstructural protein 1 (Q194T2 whole entry): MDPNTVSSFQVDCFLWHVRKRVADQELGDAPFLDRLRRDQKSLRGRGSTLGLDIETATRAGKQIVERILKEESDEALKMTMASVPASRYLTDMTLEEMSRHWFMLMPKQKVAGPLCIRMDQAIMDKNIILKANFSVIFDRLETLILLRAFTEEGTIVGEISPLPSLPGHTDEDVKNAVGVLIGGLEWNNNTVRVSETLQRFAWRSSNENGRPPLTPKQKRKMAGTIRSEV

Hexokinase-1 = Hexokinase-1 (Homo sapiens, UniProt P19367); assay: HK1 enzyme activation by HKDC1 hits – biochemical, selectivity assay for HKDC1 activator project, dose response (AID 504762); format: functional
Sequence of Hexokinase-1 (P19367 whole entry): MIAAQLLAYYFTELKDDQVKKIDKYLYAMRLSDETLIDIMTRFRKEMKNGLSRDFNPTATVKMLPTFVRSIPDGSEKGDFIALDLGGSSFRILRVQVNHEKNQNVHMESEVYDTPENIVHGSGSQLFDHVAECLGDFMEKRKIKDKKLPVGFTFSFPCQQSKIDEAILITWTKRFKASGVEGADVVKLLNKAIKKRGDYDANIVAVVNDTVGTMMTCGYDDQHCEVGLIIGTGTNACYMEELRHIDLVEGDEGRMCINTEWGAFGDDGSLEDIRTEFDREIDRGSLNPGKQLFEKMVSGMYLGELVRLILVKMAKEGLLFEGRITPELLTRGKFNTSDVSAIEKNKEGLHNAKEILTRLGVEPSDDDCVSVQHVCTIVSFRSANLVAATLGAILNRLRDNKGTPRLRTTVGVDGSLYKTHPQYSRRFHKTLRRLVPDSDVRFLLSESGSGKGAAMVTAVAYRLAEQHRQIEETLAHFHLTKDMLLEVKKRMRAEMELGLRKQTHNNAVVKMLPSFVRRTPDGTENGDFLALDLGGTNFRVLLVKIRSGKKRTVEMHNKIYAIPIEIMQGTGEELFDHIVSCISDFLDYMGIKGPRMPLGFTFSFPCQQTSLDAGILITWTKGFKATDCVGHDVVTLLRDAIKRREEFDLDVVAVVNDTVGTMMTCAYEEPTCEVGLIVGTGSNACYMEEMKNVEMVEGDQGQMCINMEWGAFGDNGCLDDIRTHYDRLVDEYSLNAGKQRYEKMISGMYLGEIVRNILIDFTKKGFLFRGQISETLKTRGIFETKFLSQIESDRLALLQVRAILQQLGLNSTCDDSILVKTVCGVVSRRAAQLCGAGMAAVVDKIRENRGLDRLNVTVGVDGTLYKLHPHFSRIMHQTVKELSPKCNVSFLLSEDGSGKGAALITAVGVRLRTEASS

HEK293 = assay: EBV LMP1 TES2 canonical NF-kB signalling blockers – cell-based, HEK293, luciferase, cherry-pick, dose response (AID 588343); format: functional; conditions: Homo sapiens
[21] = molecular target: T8, G-protein coupled receptor 35 (Homo sapiens, UniProt Q9HC97); assay: inhibition of zaprinast-stimulated GPR35 beta-arrestin translocation – imaging, U2OS, beta-arrestin-GFP, zaprinast agonist, primary screen (AID 2058); format: functional;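 further: antagonist potency meaning inhibition of agonist-induced arrestin redistribution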
T8 sequence (Q9HC97 whole entry): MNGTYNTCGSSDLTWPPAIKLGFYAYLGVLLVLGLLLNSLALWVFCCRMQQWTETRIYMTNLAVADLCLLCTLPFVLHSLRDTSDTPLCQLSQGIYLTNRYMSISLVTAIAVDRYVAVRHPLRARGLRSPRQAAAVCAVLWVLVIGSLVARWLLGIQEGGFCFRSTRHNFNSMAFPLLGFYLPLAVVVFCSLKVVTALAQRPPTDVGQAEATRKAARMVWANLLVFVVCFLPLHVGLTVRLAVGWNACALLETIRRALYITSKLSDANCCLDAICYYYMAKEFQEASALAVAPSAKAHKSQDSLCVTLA

[22] = molecular target: T8, G-protein coupled receptor 35; assay: SAR analysis of Antagonists of the GPR35 Receptor using an Image-Based Assay - Set 5. [Related pubchem assays (depositor defined):AID2058, AID2079]; format: functional
[23] = molecular target: T8, G-protein coupled receptor 35; assay: SAR Analysis for the identification of Selective Antagonists of ERK1/2 Activity in GPR35-Overexpressing U2OS Cells - Set 2. [Related pubchem assays (depositor defined):AID2058, AID2079]; format: functional, cell-based
[24] = molecular target: G-protein coupled receptor 55 (Homo sapiens, UniProt Q9Y2T6); assay: SAR Analysis of Selective Antagonists of GPR55 using an Image-Based Assay - Set 3. [Related pubchem assays (depositor defined):AID2058, AID2079]; format: functional
Sequence of G-protein coupled receptor 55 (Q9Y2T6 whole entry): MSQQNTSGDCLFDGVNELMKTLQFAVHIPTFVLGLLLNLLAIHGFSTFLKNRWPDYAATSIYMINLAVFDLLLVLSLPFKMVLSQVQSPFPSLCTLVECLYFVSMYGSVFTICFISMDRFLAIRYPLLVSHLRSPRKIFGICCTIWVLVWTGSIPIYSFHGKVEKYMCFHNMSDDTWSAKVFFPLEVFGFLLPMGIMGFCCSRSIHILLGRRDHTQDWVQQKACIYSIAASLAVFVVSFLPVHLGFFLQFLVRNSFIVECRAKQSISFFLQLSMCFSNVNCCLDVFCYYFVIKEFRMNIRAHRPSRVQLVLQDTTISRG

Sequence of Glyceraldehyde-3-phosphate dehydrogenase (P04406 whole entry): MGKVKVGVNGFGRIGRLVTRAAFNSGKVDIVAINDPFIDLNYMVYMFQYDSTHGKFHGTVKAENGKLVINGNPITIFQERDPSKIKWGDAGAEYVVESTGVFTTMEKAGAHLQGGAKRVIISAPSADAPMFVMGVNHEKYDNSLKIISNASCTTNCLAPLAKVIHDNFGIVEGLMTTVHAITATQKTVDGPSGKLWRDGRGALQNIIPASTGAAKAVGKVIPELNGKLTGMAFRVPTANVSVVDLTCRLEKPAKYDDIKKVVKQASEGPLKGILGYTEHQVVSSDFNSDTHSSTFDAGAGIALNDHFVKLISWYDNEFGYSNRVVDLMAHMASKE

c1cncc(-n2cncn2)c1
IC50 [1]: > 100 µM (not active) | IC50 [2]: > 100 µM (inactive)

O=C(COc1ccc(-c2ccccc2)cc1)N1CCN(S(=O)(=O)Cc2ccccc2)CC1
IC50 (J774.A1): > 25 µM (inactive)

CCN(CC)CCNC(=O)CCCNC(=O)Cn1cnc2sc(C)c(C)c2c1=O
EC50 (T-cell): 9.52 µM (active)

O=C(O)[C@@H](c1ccccc1)N1Cc2ccccc2C1=O
IC50 [3]: > 200 µM (inactive) | IC50 [4]: 65.6 µM (active) | IC50 [5]: 28.3 µM (active) | IC50 [6]: 13.8 µM (active) | IC50 (Hexokinase HKDC1 [7]): 13.7 µM (active)

O=C(C1=C(O)C(=O)N(c2nc3ccc(Cl)cc3s2)C1c1ccco1)c1ccco1 (stereo unspecified)
IC50 [8]: 28.8 µM (not active) | IC50 (Bcl-2-like protein 1): > 109 µM (not active) | EC50 [9]: 0.7 µM (active) | IC50 [10]: > 66.6 µM (inactive) | IC50 [11]: 13.8 µM (active) | IC50 [12]: 56.8 µM (active) | IC50 [13]: 8.8 µM (active) | CC50 [14]: 100 µM (active) | IC50 [15]: 118 µM (active)

CC(C)(Oc1ccccc1)C(=O)Nc1nnc(-c2ccc3ccccc3c2)o1
EC50 [16]: 1.1 µM (active)

Cc1ccc(S(=O)(=O)NCc2ccc(C(=O)NCCN3CCC(c4ccccc4)CC3)cc2)cc1
IC50 (Mu-type opioid receptor): 3.88 µM (active) | IC50 [17]: > 20 µM (inactive) | IC50 [18]: > 32 µM (inactive) | IC50 [19]: 10.6 µM (inactive)

CC(=NNC(=S)N1CCCCC1)c1cccc(C)n1
EC50 (Hexokinase HKDC1 [20]): 14.5 µM (active) | IC50 (Nonstructural protein 1): 3.84 µM (active) | EC50 (Hexokinase-1): > 80 µM (inactive) | AC50 (HEK293): 2.74 µM (active)

COC(=O)c1cnn(-c2ccc(F)cc2F)c1/C=N/NC(=S)NC(C)(C)C
IC50 [21]: < 0.5 µM (active) | IC50 [22]: 0.16 µM (active) | IC50 [23]: 1.39 µM (active) | IC50 [24]: 9.08 µM (active)
